Laboratory results published in PubChem BioAssay AID248 (DTP/NCI, 2004).
Inconclusive results and toxic doses are left out. No stated cut-off is given here; in the data, active means T/C of 150% or more; inactive means T/C below 125%.

Test system: L1210 leukemia ip in BDF1 mice, survival T/C
Test: NCI In Vivo Anticancer Drug Screen. Data for tumor model L1210 Leukemia (intraperitoneal) in B6D2F1 (BDF1) mice
Settings: endpoint: mean survival time, higher = longer survival
Summary of the method: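 Survival endpoint. Drug-treated group vs vehicle group, expressed as T divided by C. Tumor passaged by transplantation.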

[1] = dose: 100.0 mg/kg/injection, schedule: Q04DX003 (ip), vehicle: Klucel (hydroxypropylcellulose) (HPC)
[2] = dose: 200.0 mg/kg/injection, schedule: Q04DX003 (ip), vehicle: Klucel (hydroxypropylcellulose) (HPC)
[3] = dose: 400.0 mg/kg/injection, schedule: Q04DX003 (ip), vehicle: Klucel (hydroxypropylcellulose) (HPC)
[4] = dose: 100.0 mg/kg/injection, schedule: Q01DX001 (ip), vehicle: saline
[5] = dose: 200.0 mg/kg/injection, schedule: Q01DX001 (ip), vehicle: saline
[6] = dose: 100.0 mg/kg/injection, schedule: Q01DX009 (ip), vehicle: Klucel (hydroxypropylcellulose) (HPC)
[7] = dose: 200.0 mg/kg/injection, schedule: Q01DX009 (ip), vehicle: Klucel (hydroxypropylcellulose) (HPC)
[8] = dose: 400.0 mg/kg/injection, schedule: Q01DX009 (ip), vehicle: Klucel (hydroxypropylcellulose) (HPC)

Measured: T/C

N/N=C(\N)c1cn(C2OC(CO)C(O)C2O)c2ncnc(N)c12 (stereo unspecified)
inactive: dose: 5.0 mg/kg/injection, schedule: Q01DX001 (ip), vehicle: carboxymethylcellulose (CMC) 109 % of control

COc1cccc(NC(=S)NCCO)c1
inactive: [1] 103 % of control | [2] 110 % of control | [3] 110 % of control

CC(=O)Oc1ccc(Cl)cc1/C=C\C=O
inactive: [4] 100 % of control | [5] 101 % of control

Cc1ccc(S(=O)(=O)NC(c2ccccc2)(c2ccccc2)c2ccc([N+](=O)[O-])cc2)cc1
inactive: dose: 100.0 mg/kg/injection, schedule: Q01DX009 (ip), vehicle: saline 100 % of control | dose: 200.0 mg/kg/injection, schedule: Q01DX009 (ip), vehicle: saline 103 % of control | dose: 400.0 mg/kg/injection, schedule: Q01DX009 (ip), vehicle: saline 101 % of control

C/C(=C/Cl)OC(C)C
inactive: dose: 50.0 mg/kg/injection, schedule: Q01DX009 (ip), vehicle: acetone 99 % of control | dose: 100.0 mg/kg/injection, schedule: Q01DX009 (ip), vehicle: acetone 99 % of control | dose: 200.0 mg/kg/injection, schedule: Q01DX009 (ip), vehicle: acetone 101 % of control

CCOC(=O)C(=CNc1cccc2cnccc12)C(=O)OCC
inactive: dose: 50.0 mg/kg/injection, schedule: Q01DX009 (ip), vehicle: saline with Tween-80 91 % of control | dose: 100.0 mg/kg/injection, schedule: Q01DX009 (ip), vehicle: saline with Tween-80 88 % of control | dose: 200.0 mg/kg/injection, schedule: Q01DX009 (ip), vehicle: saline with Tween-80 88 % of control

Cc1ccccc1N1C(=O)c2ccccc2C1=O
inactive: [6] 95 % of control | dose: 100.0 mg/kg/injection, schedule: Q04DX002 (ip), vehicle: Klucel (hydroxypropylcellulose) (HPC) 96 % of control | [7] 98 % of control | dose: 200.0 mg/kg/injection, schedule: Q04DX002 (ip), vehicle: Klucel (hydroxypropylcellulose) (HPC) 86 % of control | [8] 98 % of control | dose: 400.0 mg/kg/injection, schedule: Q04DX002 (ip), vehicle: Klucel (hydroxypropylcellulose) (HPC) 93 % of control

CCOC(=O)c1c(C)c2c(n1C)CCC(C#N)C2=O (stereo unspecified)
inactive: dose: 100.0 mg/kg/injection, schedule: Q01DX001 (ip), vehicle: carboxymethylcellulose (CMC) 103 % of control | dose: 200.0 mg/kg/injection, schedule: Q01DX001 (ip), vehicle: carboxymethylcellulose (CMC) 97 % of control | dose: 400.0 mg/kg/injection, schedule: Q01DX001 (ip), vehicle: carboxymethylcellulose (CMC) 98 % of control

CC(CO)(CO)N=Cc1ccccc1
inactive: dose: 50.0 mg/kg/injection, schedule: Q01DX001 (ip), vehicle: saline 112 % of control | [4] 112 % of control | [5] 100 % of control | dose: 400.0 mg/kg/injection, schedule: Q01DX001 (ip), vehicle: saline 100 % of control

C[N+](C)(C)N=C1CCC2(CC1)c1ccccc1-c1ccccc12
inactive: dose: 12.5 mg/kg/injection, schedule: Q01DX009 (ip), vehicle: saline 95 % of control | dose: 12.5 mg/kg/injection, schedule: Q04DX003 (ip), vehicle: saline 103 % of control | dose: 25.0 mg/kg/injection, schedule: Q01DX009 (ip), vehicle: saline 93 % of control | dose: 25.0 mg/kg/injection, schedule: Q04DX003 (ip), vehicle: saline 100 % of control | dose: 50.0 mg/kg/injection, schedule: Q04DX003 (ip), vehicle: saline 95 % of control

CNC(=O)Nc1cccc(C(=O)O)c1
inactive: [6] 98 % of control | [7] 103 % of control | [8] 92 % of control

C#CC(OC(=O)NC(CCSC)C(=O)OC)(c1ccccc1)c1ccccc1 (stereo unspecified)
inactive: dose: 100.0 mg/kg/injection, schedule: Q01DX001 (ip), vehicle: saline with Tween-80 99 % of control | dose: 200.0 mg/kg/injection, schedule: Q01DX001 (ip), vehicle: saline with Tween-80 99 % of control

CCCCNC(=O)CC#N
inactive: [1] 104 % of control | [2] 107 % of control | [3] 107 % of control
